Test results: patent publication US20070249988A1, “Electrotransport Delivery of Nesiritide” (ALZA CORPORATION, priority 2006, published 2007)

Key:
[1] = Isocratic hydrophobic interaction chromatography (HIC); format: physicochemical
Method: Nesiritide was analyzed by isocratic hydrophobic interaction chromatography (HIC) using the conditions set forth in the table below to estimate the peptide's hydrophobicity.

[2] = Stability under donor conditions (buffer, RP-HPLC); format: physicochemical
Method: The stability of nesiritide at 32° C. under both donor and receptor conditions was evaluated.
The peptide was incubated in various buffer systems, both with and without human epidermis, at concentrations to be used for donor solutions. Experiments were conducted at 32° C. for 8 hours and 24 hours. The solutions were separated into portions and analyzed by RP-HPLC using the conditions described in the table below, both directly and after dilution to give a concentration of nesiritide at ˜100 μg/mL. In some cases, donor solutions were also removed and analyzed following ET Flux experiments.

hairless guinea pigs = assay: Skin irritation after electrotransport administration; format: in vivo
Method: Nesiritide was administered to hairless guinea pigs, and the guinea pigs were monitored for skin irritation.

[3] = In vitro electrotransport of nesiritide across heat-separated human epidermis (ET cells, solution donor); format: in vitro ADME
Method: Nesiritide was screened in vitro for its electrotransport (ET) properties with heat-separated human epidermis/stratum corneum (skin).
In vitro electrotransport of nesiritide across heat-separated human epidermis/stratum corneum was conducted using anodic drive with ET cells in three separate sets of experiments, using human epidermis from three sources under the conditions set forth in the table below.
The pH of donor solutions was monitored before and after the experiments. The amount of passive transport was determined in fully assembled ET cells, incubated at 32° C. for 1 hour, with subsequent analysis of the receptor solution by RP-HPLC. […] The applied constant current was 100 μA/cm^2. The receptor solution was removed for analysis and replenished at 2 hour intervals during the first eight hours of testing, and then after 24 hours and 26 hours. The voltage drop across each cell was monitored at intervals throughout the experiment. Additionally, after the completion of transport studies, the solutions from some donor compartments were removed and analyzed either for evidence of peptide degradation or for pH changes.
When comparing data obtained using different conditions during ET Flux, it is thought to be more useful to compare the median values for each case (Holladay, L. A. 1995; personal communications). The use of the median as a figure of merit for ET flux data decreases the impact of both measurement and recovery problems for cells with low transport values. It also minimizes the impact of data from ECs with higher values, which may represent skin that was partially leaking. In order to compare the values of the median from different studies, it is necessary to have an estimate of the confidence interval for each median. If the values for the medians are different, but the confidence intervals overlap, then the results are not truly distinguished. For this work with nesiritide, a Bootstrap method (Diciccio, T. J., Romano, J. P. A Review of Bootstrap Confidence Intervals, J. R. Statist Soc B, 1988; 50 338-354; Efron, B., Tibshirani, R. Bootstrap Methods for Standard errors, Confidence Intervals, and Other Measures of Statistical Accuracy, Statistical Science, 1986; 1 54-77) was used to determine 95% and 67% confidence intervals for the data sets compared. The method estimates the intervals using considerable amounts of computation; 32,000 trials of the algorithm were used for these analyses.

[4] = In vitro electrotransport of nesiritide using hydrogel reservoirs; format: in vitro ADME; conditions: heat separated human epidermis
Method: Suitable nesiritide flux rates can be achieved by selecting appropriate electrotransport conditions. […] The data shown in the figure were obtained using the transdermal delivery of nesiritide with a silver donor electrode at the anode and a silver chloride counter electrode at the cathode. […] The tests were performed on heat separated human epidermis.
In vitro electrotransport flux experiments were conducted using either synthetic polymeric Nulepore membranes or heat separated human cadaver epidermis. Custom-built horizontal diffusion cells were used for all in vitro skin flux experiments. Silver and silver chloride electrodes were used to apply current across the cell. Nesiritide hydrogels were placed between the silver anode and human heat-separated epidermis. In addition, a PVOH hydrogel containing a polymeric chloride source was placed between the silver anode and the drug hydrogel. A 1/10 dilution of Dulbecco's phosphate buffered saline (0.015 M NaCl) served as the receptor solution, which was continuously pumped through the receptor compartment. […]
The receptor samples were analyzed for nesiritide using a HPLC assay. In addition, as show in FIGS. 6B and 7B, formulations were also extracted for nesiritide and analyzed via a HPLC assay after use in a flux experiment.

[5] = 8 hour delivery, study a & c, fresh skin, combine 1 mM & 3 mM, 100 μA/cm^2
[6] = 8 hour delivery, study a & c, fresh skin, donor 1 mM, 100 μA/cm^2
[7] = 8 hour delivery, study b, frozen skin, donor 1 mM, 100 μA/cm^2
[8] = 8 hour delivery, study b, frozen skin, donor 3 mM, 100 μA/cm^2
[9] = 8 hour delivery, study c, fresh skin, donor 3 mM, 100 μA/cm^2

CC[C@H](C)[C@@H]1NC(=O)[C@H](CCCNC(=N)N)NC(=O)[C@H](CC(=O)O)NC(=O)[C@H](CCSC)NC(=O)[C@H](CCCCN)NC(=O)[C@H](CCCNC(=N)N)NC(=O)CNC(=O)[C@H](Cc2ccccc2)NC(=O)[C@@H](NC(=O)CNC(=O)[C@H](CO)NC(=O)CNC(=O)[C@H](CCC(N)=O)NC(=O)[C@@H](NC(=O)[C@H](CCSC)NC(=O)[C@H](CCCCN)NC(=O)[C@@H]2CCCN2C(=O)[C@@H](N)CO)C(C)C)CSSC[C@@H](C(=O)N[C@@H](CCCCN)C(=O)N[C@H](C(=O)N[C@@H](CC(C)C)C(=O)N[C@@H](CCCNC(=N)N)C(=O)N[C@@H](CCCNC(=N)N)C(=O)N[C@@H](Cc2c[nH]cn2)C(=O)O)C(C)C)NC(=O)CNC(=O)[C@H](CC(C)C)NC(=O)CNC(=O)[C@H](CO)NC(=O)[C@H](CO)NC(=O)[C@H](CO)NC(=O)[C@H](CO)NC1=O [Nesiritide, nesiritide]
free energy of adsorption to the HIC column, δΔ Gads ([1]; imidazole at pH 7, 10 mM ionic): 0.46 k J mole^−1
hydrophilicity by HIC ([1]; pH 7.0 imidazole 10 mM ionic, 32° C.): high measured hydrophilicity
stability ([2]; pH 6, 7 or 8, without human epidermis, 32° C., 8-hour): considerable stability
stability ([2]; pH 6 and 7, 24-hour incubation at 32° C.): remained stable
degradation ([2]; pH 6 or 7, after 24 hours at 32° C.): minimal
stability ([2]; pH 8, 24-hour incubation at 32° C.): considerable loss of nesiritide
peptide degradation or change in disulfide bond in donor solutions ([2]; selected donor solutions following ET flux): no peptide degradation or change in the disulfide bond
skin irritation (hairless guinea pigs; 0.1 mA/cm^2): mild
skin irritation (hairless guinea pigs; 0.2 mA/cm^2): mild
comprehensive median value for transport through human skin ([3]; 1 mM and 3 mM donor combined, 95% confidence interval of 1.2-2.1): 1.6 μg cm^−2h^−1
Mean electrotransport flux ([3]; 1 mM and 3 mM, study a & c, sampling up to 8 h, fresh skin): 4.7 μg cm^−2 h^−1
Mean electrotransport flux ([3]; 1 mM and 3 mM, study b, sampling 8 h–26 h, frozen skin): 1.5 μg cm^−2 h^−1
Mean electrotransport flux ([3]; 1 mM and 3 mM, study b, sampling up to 8 h, frozen skin): 18.6 μg cm^−2 h^−1
Mean electrotransport flux ([3]; 1 mM and 3 mM, study c, sampling 8 h–26 h, fresh skin): 1.3 μg cm^−2 h^−1
Mean electrotransport flux [3, 5]: 4.7 μg cm^−2 h^−1
Median electrotransport flux [3, 5]: 1.6 μg cm^−2 h^−1
Mean electrotransport flux [3, 6]: 3.0 μg cm^−2 h^−1
Median electrotransport flux [3, 6]: 1.6 μg cm^−2 h^−1
Mean electrotransport flux [3, 7]: 10.7 μg cm^−2 h^−1
Median electrotransport flux [3, 7]: 6.3 μg cm^−2 h^−1
Mean electrotransport flux [3, 8]: 24.9 μg cm^−2 h^−1
Median electrotransport flux [3, 8]: 5.6 μg cm^−2 h^−1
Mean electrotransport flux [3, 9]: 8.2 μg cm^−2 h^−1
Median electrotransport flux [3, 9]: 2.0 μg cm^−2 h^−1
transport with respect to time ([3]; by 24 hours (FIG. 2)): approaches zero transport
median values for transport, donor 1 mM versus 3 mM ([3]; comparison of donor 1 mM and 3 mM (FIG. 3)): not significantly different
Median Transport ([3]; fresh skin, Mid-time 0): 0 μg cm^−2 h^−1
Median Transport ([3]; fresh skin, Mid-time 0.6): 4.00 μg cm^−2 h^−1
Median Transport ([3]; fresh skin, Mid-time 2.2): 2.01 μg cm^−2 h^−1
Median Transport ([3]; fresh skin, Mid-time 4.2): 1.55 μg cm^−2 h^−1
Median Transport ([3]; fresh skin, Mid-time 6.2): 1.06 μg cm^−2 h^−1
Median Transport ([3]; fresh skin, Mid-time 16): 0.37 μg cm^−2 h^−1
Median Transport ([3]; fresh skin, Mid-time 25): 0.80 μg cm^−2 h^−1
correlation between magnitude of applied current and steady state flux [4]: linear correlation
in vitro transport efficiency ([4]; silver donor electrode at anode, silver chloride counter electrode at cathode): about 0.14 mg/mAhr
